Reference: US6822146B2, “Sulfonylurea-tolerant sunflower line M7” (priority 2000, dated 2004)
Counter-ions that a name gives are not always drawn.

Key:
[1] = system: M5M11; assay: Test B greenhouse phytotoxicity, M5M11; format: in vivo, sunflower
Method: (§1) A greenhouse experiment was conducted to evaluate the spectrum of tolerance of three homozygous resistant mutants to various herbicides inhibiting acetolactate synthase (ALS) as their mode of action. The inbred lines tested were the 5th generation self-pollinated maintainers, M5M7, M5M11 and M5M12, as well as the 4th generation male sterile back-crosses BC4-M5M7, BC4-M5M11 and BC4-M5M12. Treatments of formulated herbicides were applied post-emergence at the 4-leaf stage. Application rates of the test herbicides were chosen to coincide with the rates commonly used in the crops for which they are registered. The application rate of imazethapyr was chosen to match the rate recommended to control parasitic weeds in sunflowers by L. García-Torres et al., Weed Technology 1995, 9, 819-824. Wild type H89 inbred sunflower was not included in this test, because the many of the tested herbicides are known to be efficacious in controlling volunteer sunflower as a weed. Treatments were replicated twice. […] A rating of 0% phytotoxicity means no crop injury.

[2] = system: BC4-M5M7; assay: Test B greenhouse phytotoxicity, BC4-M5M7; format: in vivo, sunflower
Method: as §1

[3] = system: homozygous progeny of the three mutant sources; format: in vivo, sunflower; conditions: Test B application rates, post-emergence
Method: as §1

[4] = system: BC4-M5M11; assay: Test B greenhouse phytotoxicity, BC4-M5M11; format: in vivo, sunflower
Method: as §1

[5] = system: M5M7; assay: Test B greenhouse phytotoxicity, M5M7; format: in vivo, sunflower
Method: as §1

[6] = system: BC4-M5M12; assay: Test B greenhouse phytotoxicity, BC4-M5M12; format: in vivo, sunflower
Method: as §1

[7] = system: M5M12; assay: Test B greenhouse phytotoxicity, M5M12; format: in vivo, sunflower
Method: as §1

[8] = system: Orobanche cumana; assay: Test E control of Orobanche cumana in resistant sunflower hybrid; format: in vivo
Method: The effect of the various treatments was evaluated 35 days after sowing. The sunflower roots were cleaned by washing in water, and the presence of Orobanche nodules was determined visually and by weighing root wet mass in comparison to check plants free of Orobanche infestation. […] The nodules caused by Orobanche increased root weight, and a correlation (r=0.7) was found between visual scores and weight measurements. Thus the weighing technique could be used to corroborate visual efficacy scorings. Orobanche emergence was also scored but found to be less useful to evaluate treatment efficiency at the evaluation timing of this test.
(§2) Based on the results from Test D, a modified protocol was developed to include three timings of post-emergence treatment. The hybrid BC4-M5M12 (female parent)×PHA155 restorer line (male parent) described in Test C was used in this test. Various herbicide programs were tested using three replications. […] Seed coatings of these formulated herbicides were applied to 6 kg of seeds in such amount that considering the distribution of the coated seeds in each pot, the herbicide active ingredient (a.i.) application rates per hectare were as indicated.
(§3) The treatments were applied similar to the methods described for Test D. Pre-emergence applications were broadcast only, not soil incorporated. For pre-emergence application, the pots were sprayed using the high rates of the herbicides two days after sowing the sunflower seeds. Post-emergence treatments were applied at the 4-6 leaf stage of sunflower (corresponding to early stage of Orobanche attachment; identified as “T1”), the 6-8 leaf stage of sunflower (corresponding to the mid stage of Orobanche attachment; nodules <5 mm diameter; identified as “T2”) and 8-12 leaf stage of sunflower (corresponding to late stage of Orobanche attachment; identified as “T3”). The mid-stage applications included the high as well as low application rates of each herbicide.
(§4) For comparison were also included in this test other acetolactate synthase-inhibiting herbicides reported in the literature as giving good weed control of Orobanche (L. García-Torres et al., Weed Research 1994, 34, 395-402; L. García-Torres et al., Weed Technology 1995, 9, 819-824; J. Hershenhorn et al., Weed Technology 1998, 12, 108-114).

[9] = system: BC4-M5M12 × PHA155 hybrid; assay: Test E injury to sunflower hybrid; format: in vivo; conditions: in vivo
Method: as §2, §3, §4

[10] = system: GA-M4M11 × RHA274; assay: Test A field trial, phytotoxicity, variety D; format: in vivo, sunflower; conditions: variety D; 20 g a.i./ha post-emergence
Excerpt: (§5) To generate the hybrids C, D and E, the fourth generation self-pollinated maintainer mutant lines M4M12, M4M11 and M4M7 were chemically sterilized by applying at the bud “star” flower stage a small amount of gibberellic acid solution to sterilize the pollen according to the general method described in Sunflower Science Technology, J. F. Carter ed. (Number 19 in the series “Agronomy”) pp. 339-386. This treatment enables maintainer plants to behave as CMS inbred lines and allows the production of heterozygous resistant hybrids, with the herbicide resistant source coming from the female side. Such crosses allowed evaluating the sexual effect of the mutation source when introduced on the female side of a cross as described in crosses C, D and E versus the male side of a cross as described in crosses F, G and H. Labels I, J and K identify third generation CMS mutant lines crossed with fourth generation maintainer lines to maintain the highly heritable mutant trait in a male sterile homozygous resistant environment. One skilled in sunflower breeding art understands the meaning of such crosses.
(§6) A rating of 0% phytotoxicity means no crop injury.

[11] = system: GA-M4M12 × RHA274; assay: Test A field trial, phytotoxicity, variety C; format: in vivo, sunflower; conditions: variety C; 20 g a.i./ha post-emergence
Excerpt: as §5, §6

[12] = system: BC3-M4M11; assay: Test A field trial, phytotoxicity, variety J; format: in vivo, sunflower; conditions: variety J; 20 g a.i./ha post-emergence
Excerpt: as §5, §6

[13] = system: GA-M4M7 × RHA274; assay: Test A field trial, phytotoxicity, variety E; format: in vivo, sunflower; conditions: variety E; 20 g a.i./ha post-emergence
Excerpt: as §5, §6

[14] = system: Inbred line control: H89A; format: in vivo, sunflower; conditions: variety B; 20 g a.i./ha post-emergence
Excerpt: as §5, §6

[15] = system: H89A × M4M12; format: in vivo, sunflower; conditions: variety F; 20 g a.i./ha post-emergence
Excerpt: as §5, §6

[16] = system: H89A × M4M7; format: in vivo, sunflower; conditions: variety H; 20 g a.i./ha post-emergence
Excerpt: as §5, §6

[17] = system: H89A × M4M11; format: in vivo, sunflower; conditions: variety G; 20 g a.i./ha post-emergence
Excerpt: as §5, §6

[18] = system: Hybrid control: H89A × RHA274; format: in vivo, sunflower; conditions: variety A; 20 g a.i./ha post-emergence
Excerpt: as §5, §6

[19] = system: Homozygous resistant inbred lines, BC3-M4M12 (I), BC3-M4M11 (J) and BC3-M4M7 (K); assay: Test A summary, homozygous resistant inbred lines; conditions: Test A application rates; triflusulfuron-methyl at 20 g a.i./ha
Method: In a small field trial, the sunflower varieties described in Table 4 were sprayed post-emergence with a variety of sulfonylurea herbicide treatments.
Broadcast post-emergence applications of formulated sulfonylurea herbicides were performed at the 6-leaf development stage using four randomly distributed replications. Application rates were chosen to match the usual use rates of these herbicides in the crops they are registered in Europe. All herbicides except for metsulfuron-methyl were sprayed in combination with Citowet® non-ionic ethoxylated alcohol at 0.25% volume of formulated product per volume of water applied per hectare.
The evaluation of the maximum (i.e. peak) injury to sunflower varieties by sulfonylurea herbicides was measured by visual ratings, which are listed in Table 5. A rating of 0% phytotoxicity means no crop injury. […] A rating of 100% means the complete destruction of all plants.

[20] = system: BC3-M4M7; assay: Test A field trial, phytotoxicity, variety K; format: in vivo, sunflower; conditions: variety K; 20 g a.i./ha post-emergence
Excerpt: as §5, §6

[21] = system: BC3-M4M12; assay: Test A field trial, phytotoxicity, variety I; format: in vivo, sunflower; conditions: variety I; 20 g a.i./ha post-emergence
Excerpt: as §5, §6

[22] = system: BC4-M5M7 × PHA155; assay: Test C field phytotoxicity, BC4-M5M7 × PHA155; format: in vivo, sunflower
Excerpt: as §6

[23] = system: BC4-M5M12 × PHA155; assay: Test C field phytotoxicity, BC4-M5M12 × PHA155; format: in vivo, sunflower
Excerpt: as §6

[24] = postemergence 6.25 g a.i./ha, 7 DAT
[25] = postemergence 6.25 g a.i./ha, 15 DAT
[26] = postemergence 6.25 g a.i./ha, 30 DAT
[27] = postemergence 12.5 g a.i./ha, 7 DAT
[28] = postemergence 12.5 g a.i./ha, 15 DAT
[29] = postemergence 12.5 g a.i./ha, 30 DAT

SMILES	tolerance of the mutants [3]	Maximum Phytotoxicity ([1]; in vivo)	Maximum Phytotoxicity ([2]; in vivo)	Maximum Phytotoxicity ([4]; in vivo)	Maximum Phytotoxicity ([5]; in vivo)	Maximum Phytotoxicity ([6]; in vivo)	Maximum Phytotoxicity ([7]; in vivo)	also measured
COC(=O)c1c(Cl)nn(C)c1S(=O)(=O)NC(=O)Nc1nc(OC)cc(OC)n1 [Halosulfuron-methyl, halosulfuron-methyl]	somewhat sensitive							Maximum Phytotoxicity ([1]; M5M11, 45 g a.i./ha post-emergence 4-leaf stage): 60%; Maximum Phytotoxicity ([2]; BC4-M5M7, 45 g a.i./ha post-emergence 4-leaf stage): 60%; Maximum Phytotoxicity ([4]; BC4-M5M11, 45 g a.i./ha post-emergence 4-leaf stage): 65%; Maximum Phytotoxicity ([5]; M5M7, 45 g a.i./ha post-emergence 4-leaf stage): 50%; Maximum Phytotoxicity ([6]; BC4-M5M12, 45 g a.i./ha post-emergence 4-leaf stage): 65%; Maximum Phytotoxicity ([7]; M5M12, 45 g a.i./ha post-emergence 4-leaf stage): 60%
COC(=O)c1ccc(C(F)(F)F)nc1S(=O)(=O)NC(=O)Nc1nc(OC)cc(OC)n1 [Flupyrsulfuron-methyl-sodium]	somewhat sensitive	50%	42.5%	60%	62.5%	50%	57.5%	
COc1cc(OC)nc(Sc2cccc(Cl)c2C(=O)O)n1 [Pyrithiobac-sodium]	somewhat sensitive	50%	35%	42.5%	37.5%	40%	40%	
CCc1cnc(C2=NC(C)(C(C)C)C(=O)N2)c(C(=O)O)c1 (stereo not drawn) [Imazethapyr (ammonium salt), Imazethapyr]	marginal tolerance	30%	20%	25%	22.5%	30%	22.5%	relative efficacy in controlling Orobanche ([8]; Test E rates, metsulfuron-methyl compared with tribenuron-methyl): less efficacious in controlling Orobanche; Control ([8]; pre-emergence 40 g a.i./ha): 60%; Injury [9]: 0%
CCS(=O)(=O)c1nc2ccccn2c1S(=O)(=O)NC(=O)Nc1nc(OC)cc(OC)n1 [Sulfosulfuron]	somewhat sensitive	60%	47.5%	57.5%	50%	50%	65%	
COc1nc(C)nc(NC(=O)NS(=O)(=O)c2ccccc2OCCCl)n1 [Triasulfuron, triasulfuron]								Maximum Phytotoxicity [10]: 99%; Maximum Phytotoxicity [11]: 94%; Maximum Phytotoxicity [12]: 95%; Maximum Phytotoxicity [13]: 97%; Maximum Phytotoxicity [14]: 100%; Maximum Phytotoxicity [15]: 98%; Maximum Phytotoxicity [16]: 98%; Maximum Phytotoxicity [17]: 98%; Maximum Phytotoxicity [18]: 100%; tolerance of homozygous resistant inbred lines I, J, K [19]: as susceptible as the standards; Maximum Phytotoxicity [20]: 95%; Maximum Phytotoxicity [21]: 93%
COc1cc(OC)nc(NC(=O)NS(=O)(=O)N(C)S(C)(=O)=O)n1 [Amidosulfuron, amidosulfuron]	somewhat sensitive	60%	47.5%	57.5%	52.5%	55%	45%	
CCOC(=O)c1ccccc1S(=O)(=O)NC(=O)Nc1nc(Cl)cc(OC)n1 [Chlorimuron-ethyl, chlorimuron-ethyl]								Phytotoxicity Rating After Treatment [22, 24]: 83%; Phytotoxicity Rating After Treatment [22, 25]: 73%; Phytotoxicity Rating After Treatment [22, 26]: 67%; Phytotoxicity Rating After Treatment [22, 27]: 85%; Phytotoxicity Rating After Treatment [22, 28]: 83%; Phytotoxicity Rating After Treatment [22, 29]: 83%; Phytotoxicity Rating After Treatment [23, 24]: 70%; Phytotoxicity Rating After Treatment [23, 25]: 80%; Phytotoxicity Rating After Treatment [23, 26]: 68%; Phytotoxicity Rating After Treatment [23, 27]: 80%; Phytotoxicity Rating After Treatment [23, 28]: 90%; Phytotoxicity Rating After Treatment [23, 29]: 88%
